Laboratory results as given in PubChem BioAssay AID256 (DTP/NCI, 2004).
Toxic doses and inconclusive results are not listed. Rule for the calls: active = survival T/C of 150% or more; inactive = T/C below 125% in these data.

Tested on: CD2F1 mice, L1210 leukemia ip, survival T/C
Assay: NCI In Vivo Anticancer Drug Screen. Data for tumor model L1210 Leukemia (intraperitoneal) in CD2F1 (CDF1) mice
Conditions: higher = longer survival
Summary of the method: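 Antitumor effect is scored in animals hosting a serially transplanted tumor. Values compare compound-dosed animals against vehicle-only controls as a simple quotient.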

[1] = endpoint: mean survival time, dose: 100.0 mg/kg/injection, schedule: Q01DX001 (ip), vehicle: saline with Tween-80
[2] = endpoint: mean survival time, dose: 100.0 mg/kg/injection, schedule: Q01DX009 (ip), vehicle: saline with Tween-80
[3] = endpoint: mean survival time, dose: 200.0 mg/kg/injection, schedule: Q01DX001 (ip), vehicle: saline with Tween-80
[4] = endpoint: mean survival time, dose: 200.0 mg/kg/injection, schedule: Q01DX009 (ip), vehicle: saline with Tween-80
[5] = endpoint: mean survival time, dose: 400.0 mg/kg/injection, schedule: Q01DX001 (ip), vehicle: saline with Tween-80
[6] = endpoint: mean survival time, dose: 400.0 mg/kg/injection, schedule: Q01DX009 (ip), vehicle: saline with Tween-80
[7] = endpoint: mean survival time, dose: 100.0 mg/kg/injection, schedule: Q04DX003 (ip), vehicle: saline with Tween-80
[8] = endpoint: mean survival time, dose: 200.0 mg/kg/injection, schedule: Q04DX003 (ip), vehicle: saline with Tween-80
[9] = endpoint: mean survival time, dose: 400.0 mg/kg/injection, schedule: Q04DX003 (ip), vehicle: saline with Tween-80
[10] = endpoint: mean survival time, dose: 100.0 mg/kg/injection, schedule: Q04DX003 (ip), vehicle: saline
[11] = endpoint: mean survival time, dose: 200.0 mg/kg/injection, schedule: Q04DX003 (ip), vehicle: saline
[12] = endpoint: mean survival time, dose: 400.0 mg/kg/injection, schedule: Q04DX003 (ip), vehicle: saline
[13] = endpoint: mean survival time, dose: 100.0 mg/kg/injection, schedule: Q01DX001 (ip), vehicle: Klucel (hydroxypropylcellulose) (HPC)

Measured: T/C

CC[N-]c1nncs1.CC[N-]c1nncs1.CC[N-]c1nncs1.CC[N-]c1nncs1.[Cl][Rh][Cl]
inactive: endpoint: mean survival time, dose: 3.13 mg/kg/injection, schedule: Q04DX003 (ip), vehicle: distilled water + Tween-80 104 % of control | endpoint: mean survival time, dose: 6.25 mg/kg/injection, schedule: Q04DX003 (ip), vehicle: distilled water + Tween-80 98 % of control | endpoint: mean survival time, dose: 12.5 mg/kg/injection, schedule: Q04DX003 (ip), vehicle: distilled water + Tween-80 96 % of control | endpoint: mean survival time, dose: 25.0 mg/kg/injection, schedule: Q04DX003 (ip), vehicle: distilled water + Tween-80 90 % of control | endpoint: mean survival time, dose: 50.0 mg/kg/injection, schedule: Q04DX003 (ip), vehicle: distilled water + Tween-80 98 % of control

O=[N+]([O-])c1cc(Br)cc(Br)c1[N+](=O)[O-]
inactive: [1] 97 % of control | [2] 102 % of control | [3] 89 % of control | [4] 102 % of control | [5] 95 % of control | [6] 98 % of control

CCC(=O)c1ccccc1N
inactive: [7] 90 % of control | [8] 105 % of control | [9] 97 % of control

CCCCC(N)C(=O)O (stereo not given)
inactive: [1] 104 % of control | [10] 105 % of control | [3] 104 % of control | [11] 103 % of control | [5] 102 % of control | [12] 95 % of control

O=C(O)CC(CC(=O)O)C(=O)O
inactive: [10] 101 % of control | [11] 103 % of control | [12] 101 % of control

CC/C(C)=C1\OC(=O)C(C)C(O)C(Cc2cccnc2)NC(=O)C(NC(=O)c2ncccc2O)C(C)OC1=O (stereo not given)
inactive: endpoint: mean survival time, dose: 3.13 mg/kg/injection, schedule: Q01DX009 (ip), vehicle: saline with Tween-80 96 % of control | endpoint: mean survival time, dose: 6.25 mg/kg/injection, schedule: Q01DX009 (ip), vehicle: saline with Tween-80 95 % of control | endpoint: mean survival time, dose: 12.5 mg/kg/injection, schedule: Q01DX009 (ip), vehicle: saline with Tween-80 96 % of control | endpoint: mean survival time, dose: 25.0 mg/kg/injection, schedule: Q01DX009 (ip), vehicle: saline with Tween-80 96 % of control

ClC(Cl)c1c2c(cc3c1CCCC3)CCCC2
inactive: [2] 113 % of control | [4] 116 % of control | [6] 102 % of control

COc1ccccc1CC(C)N (stereo not given)
inactive: endpoint: mean survival time, dose: 20.0 mg/kg/injection, schedule: Q04DX003 (ip), vehicle: Klucel (hydroxypropylcellulose) (HPC) 90 % of control | endpoint: mean survival time, dose: 40.0 mg/kg/injection, schedule: Q04DX003 (ip), vehicle: Klucel (hydroxypropylcellulose) (HPC) 91 % of control | endpoint: mean survival time, dose: 80.0 mg/kg/injection, schedule: Q04DX003 (ip), vehicle: Klucel (hydroxypropylcellulose) (HPC) 96 % of control

CCOC(=O)C[N+](CC)(CC)CC
inactive: endpoint: mean survival time, dose: 100.0 mg/kg/injection, schedule: Q04DX003 (ip), vehicle: Klucel (hydroxypropylcellulose) (HPC) 96 % of control | endpoint: mean survival time, dose: 200.0 mg/kg/injection, schedule: Q04DX003 (ip), vehicle: Klucel (hydroxypropylcellulose) (HPC) 96 % of control | endpoint: mean survival time, dose: 400.0 mg/kg/injection, schedule: Q04DX003 (ip), vehicle: Klucel (hydroxypropylcellulose) (HPC) 93 % of control

C[As](C)[Se]C1OC(CO)C(O)C(O)C1O (stereo not given)
inactive: endpoint: mean survival time, dose: 12.5 mg/kg/injection, schedule: Q01DX009 (ip), vehicle: saline 103 % of control | endpoint: mean survival time, dose: 12.5 mg/kg/injection, schedule: Q04DX003 (ip), vehicle: saline 94 % of control | endpoint: mean survival time, dose: 25.0 mg/kg/injection, schedule: Q01DX009 (ip), vehicle: saline 100 % of control | endpoint: mean survival time, dose: 25.0 mg/kg/injection, schedule: Q04DX003 (ip), vehicle: saline 97 % of control | endpoint: mean survival time, dose: 50.0 mg/kg/injection, schedule: Q01DX009 (ip), vehicle: saline 102 % of control | endpoint: mean survival time, dose: 50.0 mg/kg/injection, schedule: Q04DX003 (ip), vehicle: saline 100 % of control

CC(C)(C)c1cc(C=C(C#N)C#N)cc(C(C)(C)C)c1O
inactive: [13] 87 % of control | endpoint: mean survival time, dose: 200.0 mg/kg/injection, schedule: Q01DX001 (ip), vehicle: Klucel (hydroxypropylcellulose) (HPC) 102 % of control | endpoint: mean survival time, dose: 400.0 mg/kg/injection, schedule: Q01DX001 (ip), vehicle: Klucel (hydroxypropylcellulose) (HPC) 87 % of control

OCc1cc(Cl)cc(Cl)c1O
inactive: endpoint: mean survival time, dose: 100.0 mg/kg/injection, schedule: Q01DX009 (ip), vehicle: other 93 % of control | endpoint: mean survival time, dose: 100.0 mg/kg/injection, schedule: Q04DX003 (ip), vehicle: other 92 % of control | endpoint: mean survival time, dose: 200.0 mg/kg/injection, schedule: Q01DX009 (ip), vehicle: other 93 % of control | endpoint: mean survival time, dose: 200.0 mg/kg/injection, schedule: Q04DX003 (ip), vehicle: other 92 % of control

C=CCOC(=O)Nc1ccc(S(=O)(=O)N(CCC)CCC)cc1
inactive: endpoint: mean survival time, dose: 100.0 mg/kg/injection, schedule: Q01DX001 (ip), vehicle: saline 103 % of control | endpoint: mean survival time, dose: 200.0 mg/kg/injection, schedule: Q01DX001 (ip), vehicle: saline 101 % of control | endpoint: mean survival time, dose: 400.0 mg/kg/injection, schedule: Q01DX001 (ip), vehicle: saline 89 % of control

NC(=O)c1nnc(-c2ccccn2)[nH]c1=O
inactive: endpoint: mean survival time, dose: 25.0 mg/kg/injection, schedule: Q01DX001 (ip), vehicle: Klucel (hydroxypropylcellulose) (HPC) 94 % of control | endpoint: mean survival time, dose: 50.0 mg/kg/injection, schedule: Q01DX001 (ip), vehicle: Klucel (hydroxypropylcellulose) (HPC) 98 % of control | [13] 98 % of control

S=C(N/N=C1/CCCC/C1=N/NC(=S)N1CCOCC1)N1CCOCC1
inactive: endpoint: median survival time, dose: 1.5 mg/kg/injection, schedule: Q01DX009 (ip), vehicle: saline with Tween-80 95 % of control | endpoint: median survival time, dose: 3.0 mg/kg/injection, schedule: Q01DX009 (ip), vehicle: saline with Tween-80 96 % of control | endpoint: median survival time, dose: 6.0 mg/kg/injection, schedule: Q01DX009 (ip), vehicle: saline with Tween-80 108 % of control | endpoint: median survival time, dose: 12.0 mg/kg/injection, schedule: Q01DX009 (ip), vehicle: saline with Tween-80 109 % of control

OCC1C2C=CC1CC2 (stereo not given)
inactive: [7] 95 % of control | [8] 96 % of control | [9] 96 % of control

C1=CCC2C3C=CC(CC3)C2C1 (stereo not given)
inactive: endpoint: mean survival time, dose: 75.0 mg/kg/injection, schedule: Q01DX001 (ip), vehicle: saline 86 % of control | endpoint: mean survival time, dose: 150.0 mg/kg/injection, schedule: Q01DX001 (ip), vehicle: saline 95 % of control | endpoint: mean survival time, dose: 300.0 mg/kg/injection, schedule: Q01DX001 (ip), vehicle: saline 97 % of control

CCC(=O)Nc1ccccc1Cl
inactive: [7] 103 % of control | [8] 100 % of control | [9] 100 % of control

Cc1ccc(C(C)C)cc1NC(=O)c1ccccc1C(=O)O
inactive: [7] 95 % of control | [8] 95 % of control | [9] 87 % of control

CCC1(C)C(=O)CCC2C1CCC1(C)C(C(C)CCCC(C)C)CCC21 (stereo not given)
inactive: endpoint: mean survival time, dose: 100.0 mg/kg/injection, schedule: Q01DX001 (sc), vehicle: steriod suspending solution 101 % of control | endpoint: mean survival time, dose: 200.0 mg/kg/injection, schedule: Q01DX001 (sc), vehicle: steriod suspending solution 98 % of control | endpoint: mean survival time, dose: 400.0 mg/kg/injection, schedule: Q01DX001 (sc), vehicle: steriod suspending solution 118 % of control

O=C1NC(=O)C(c2ccc(Cl)cc2)N1 (stereo not given)
inactive: [2] 93 % of control | [4] 105 % of control | [6] 104 % of control

CCCCCCCCCCCCCC(=O)[O][Sn]([CH2]CCC)([CH2]CCC)[O]C(=O)CCCCCCCCCCCCC
inactive: endpoint: mean survival time, dose: 0.78 mg/kg/injection, schedule: Q01DX009 (ip), vehicle: other 97 % of control | endpoint: mean survival time, dose: 1.56 mg/kg/injection, schedule: Q01DX009 (ip), vehicle: other 100 % of control | endpoint: mean survival time, dose: 3.13 mg/kg/injection, schedule: Q01DX009 (ip), vehicle: other 112 % of control
